# From paper PMC9601927 (Foods, 2022)
# How the values were obtained:
# [1] = system: Caco-2 cell monolayer; experiment: ANC transmembrane transport across Caco-2 cell monolayer (Transwell, HPLC); type: in vitro ADME; settings: for Transport Efficiency A→B (%) with FA-g-CS Co-Treatment: with 5 × 10^−5 mg/mL FA-g-CS
# Protocol: In this work, we utilized and slightly modified a procedure from Zou et al. to perform ANC transport studies. Firstly, ANC commercial powder was pre-dissolved in ultra-pure water and phosphate-buffered solution (PBS, pH7.4) was used for FA-g-CS dissolving. Then, pre-warmed phosphate-buffered saline (PBS) was used to wash and equilibrate the Transwell. Subsequently, the transport buffer containing ANC was added to the basolateral (1.5 mL) or the apical (0.5 mL) side of the inserts, while the corresponding volume of transport buffer was added to the receiving container. Samples measuring 50 uL were taken after 1, 2, 3, and 4 h incubation, and the same amount of pre-warmed PBS was replenished immediately. The samples were treated with HCl and frozen until HPLC analysis. The ANC-absorption-enhancing studies with FA-g-CS across Caco-2 cells were conducted using a transport buffer containing FA-g-CS+ANC instead of ANC alone.
# Transport efficiency (A→B (%)) was calculated according to the following formula: (concentrations of the compound at basolateral side overtime)/(concentrations of the compound at the apical side at zero hours) × 100. The apparent permeability coefficient (Papp) was defined as follows: Papp = (dQ/dt)(1/[AC0]); here, A represents the surface area of the Transwell, C0 represents the compound concentration added in the apical side, and the transport rate of the compound over time is denoted by dQ/dt.
# [2] = system: Caco-2 cells; experiment: MTT cell viability assay; type: cell-based
# Protocol: Caco-2 cells were provided by the Cell Bank of the Chinese Academy of Sciences (Shanghai, China). MTT analysis was used to investigate cell viability. In short, Caco-2 cells were incubated with ANC (0.23, 0.69, 2.06, 6.17, 18.52, 55.56, 166.67, or 500 × 10^−3 mg/mL), FA-g-CS (0.09, 0.27, 0.82, 2.47, 7.41, 22.22, 66.67, or 200 × 10^−3 mg/mL), or their respective combinations. Each group was incubated with three multiple wells for 48 h. Subsequently, the chemical medium was replaced with fresh MTT solution for 3 h at 37 °C and the […] was dissolved with DMSO. Then, the optical density (OD) was measured at 570 nm using a PerkinElmer EnVision (PerkinElmer, Waltham, MA, USA). The following Formula (1) was used to calculate cell viability:(1) Cell viability(%)=ODsample−ODblank/ODcontrol−ODblank where ODcontrol, ODsample, and ODblank represent the measurements of the control, sample, and blank, respectively.
structure (smiles),measurement,setting,value
"OC[C@H]1O[C@@H](Oc2cc3c(O)cc(O)cc3[o+]c2-c2ccc(O)c(O)c2)[C@H](O)[C@@H](O)[C@@H]1O [ANC, Cyanidin-3-glucoside]",Transport Efficiency A→B (%) with FA-g-CS Co-Treatment,"[1]; ANC 0.05 ×10^−3 mg/mL, 4 h",1%
same,Transport Efficiency A→B (%) without FA-g-CS,"[1]; ANC 0.05 ×10^−3 mg/mL, 4 h",0.81%
same,Transport Efficiency A→B (%) with FA-g-CS Co-Treatment,"[1]; ANC 0.10 ×10^−3 mg/mL, 4 h",2.1%
same,Transport Efficiency A→B (%) without FA-g-CS,"[1]; ANC 0.10 ×10^−3 mg/mL, 4 h",1.15%
same,Transport Efficiency A→B (%) with FA-g-CS Co-Treatment,"[1]; ANC 0.15 ×10^−3 mg/mL, 4 h",2.3%
same,Transport Efficiency A→B (%) without FA-g-CS,"[1]; ANC 0.15 ×10^−3 mg/mL, 4 h",1.18%
same,Transport Efficiency A→B (%) with FA-g-CS Co-Treatment,"[1]; ANC 0.20 ×10^−3 mg/mL, 4 h",1.65%
same,Transport Efficiency A→B (%) without FA-g-CS,"[1]; ANC 0.20 ×10^−3 mg/mL, 4 h",0.96%
same,Concentrations of ANC at the Basolateral Side,"[1]; apical ANC 0.05 ×10^−3 mg/mL, in presence of 0.05 × 10^−3 mg/mL FA-g-CS, 1 h",0.0003 ± 0.00001 b ×10^−3 mg/mL
same,Concentrations of ANC at the Basolateral Side,"[1]; apical ANC 0.05 ×10^−3 mg/mL, in presence of 0.05 × 10^−3 mg/mL FA-g-CS, 2 h",0.0004 ± 0.00001 c ×10^−3 mg/mL
same,Concentrations of ANC at the Basolateral Side,"[1]; apical ANC 0.05 ×10^−3 mg/mL, in presence of 0.05 × 10^−3 mg/mL FA-g-CS, 3 h",0.0004 ± 0.00001 c ×10^−3 mg/mL
same,Concentrations of ANC at the Basolateral Side,"[1]; apical ANC 0.05 ×10^−3 mg/mL, in presence of 0.05 × 10^−3 mg/mL FA-g-CS, 4 h",0.0005 ± 0.00001 d ×10^−3 mg/mL
same,Concentrations of ANC at the Basolateral Side,"[1]; apical ANC 0.05 ×10^−3 mg/mL, without FA-g-CS co-treatment, 1 h",0.0001 ± 0.00001 a ×10^−3 mg/mL
same,Concentrations of ANC at the Basolateral Side,"[1]; apical ANC 0.05 ×10^−3 mg/mL, without FA-g-CS co-treatment, 2 h",0.0003 ± 0.00001 b ×10^−3 mg/mL
same,Concentrations of ANC at the Basolateral Side,"[1]; apical ANC 0.05 ×10^−3 mg/mL, without FA-g-CS co-treatment, 3 h",0.0004 ± 0.00001 c ×10^−3 mg/mL
same,Concentrations of ANC at the Basolateral Side,"[1]; apical ANC 0.05 ×10^−3 mg/mL, without FA-g-CS co-treatment, 4 h",0.0004 ± 0.00001 c ×10^−3 mg/mL
same,Concentrations of ANC at the Basolateral Side,"[1]; apical ANC 0.10 ×10^−3 mg/mL, in presence of 0.05 × 10^−3 mg/mL FA-g-CS, 1 h",0.0010 ± 0.0001 bc ×10^−3 mg/mL
same,Concentrations of ANC at the Basolateral Side,"[1]; apical ANC 0.10 ×10^−3 mg/mL, in presence of 0.05 × 10^−3 mg/mL FA-g-CS, 2 h",0.0010 ± 0.0002 bc ×10^−3 mg/mL
same,Concentrations of ANC at the Basolateral Side,"[1]; apical ANC 0.10 ×10^−3 mg/mL, in presence of 0.05 × 10^−3 mg/mL FA-g-CS, 3 h",0.0019 ± 0.0001 d ×10^−3 mg/mL
same,Concentrations of ANC at the Basolateral Side,"[1]; apical ANC 0.10 ×10^−3 mg/mL, in presence of 0.05 × 10^−3 mg/mL FA-g-CS, 4 h",0.0021 ± 0.0002 d ×10^−3 mg/mL
same,Concentrations of ANC at the Basolateral Side,"[1]; apical ANC 0.10 ×10^−3 mg/mL, without FA-g-CS co-treatment, 1 h",0.0004 ± 0.00002 a ×10^−3 mg/mL
same,Concentrations of ANC at the Basolateral Side,"[1]; apical ANC 0.10 ×10^−3 mg/mL, without FA-g-CS co-treatment, 2 h",0.0008 ± 0.00001 b ×10^−3 mg/mL
same,Concentrations of ANC at the Basolateral Side,"[1]; apical ANC 0.10 ×10^−3 mg/mL, without FA-g-CS co-treatment, 3 h",0.0009 ± 0.00001 b ×10^−3 mg/mL
same,Concentrations of ANC at the Basolateral Side,"[1]; apical ANC 0.10 ×10^−3 mg/mL, without FA-g-CS co-treatment, 4 h",0.0012 ± 0.00002 c ×10^−3 mg/mL
same,Concentrations of ANC at the Basolateral Side,"[1]; apical ANC 0.15 ×10^−3 mg/mL, in presence of 0.05 × 10^−3 mg/mL FA-g-CS, 1 h",0.0017 ± 0.0002 c ×10^−3 mg/mL
same,Concentrations of ANC at the Basolateral Side,"[1]; apical ANC 0.15 ×10^−3 mg/mL, in presence of 0.05 × 10^−3 mg/mL FA-g-CS, 2 h",0.0025 ± 0.0002 d ×10^−3 mg/mL
same,Concentrations of ANC at the Basolateral Side,"[1]; apical ANC 0.15 ×10^−3 mg/mL, in presence of 0.05 × 10^−3 mg/mL FA-g-CS, 3 h",0.0030 ± 0.0001 e ×10^−3 mg/mL
same,Concentrations of ANC at the Basolateral Side,"[1]; apical ANC 0.15 ×10^−3 mg/mL, in presence of 0.05 × 10^−3 mg/mL FA-g-CS, 4 h",0.0035 ± 0.0001 f ×10^−3 mg/mL
same,Concentrations of ANC at the Basolateral Side,"[1]; apical ANC 0.15 ×10^−3 mg/mL, without FA-g-CS co-treatment, 1 h",0.0006 ± 0.00001 a ×10^−3 mg/mL
same,Concentrations of ANC at the Basolateral Side,"[1]; apical ANC 0.15 ×10^−3 mg/mL, without FA-g-CS co-treatment, 2 h",0.0009 ± 0.00002 b ×10^−3 mg/mL
same,Concentrations of ANC at the Basolateral Side,"[1]; apical ANC 0.15 ×10^−3 mg/mL, without FA-g-CS co-treatment, 3 h",0.0010 ± 0.0003 b ×10^−3 mg/mL
same,Concentrations of ANC at the Basolateral Side,"[1]; apical ANC 0.15 ×10^−3 mg/mL, without FA-g-CS co-treatment, 4 h",0.0018 ± 0.00001 c ×10^−3 mg/mL
same,Concentrations of ANC at the Basolateral Side,"[1]; apical ANC 0.20 ×10^−3 mg/mL, in presence of 0.05 × 10^−3 mg/mL FA-g-CS, 1 h",0.0020 ± 0.0001 c ×10^−3 mg/mL
same,Concentrations of ANC at the Basolateral Side,"[1]; apical ANC 0.20 ×10^−3 mg/mL, in presence of 0.05 × 10^−3 mg/mL FA-g-CS, 2 h",0.0023 ± 0.0002 d ×10^−3 mg/mL
same,Concentrations of ANC at the Basolateral Side,"[1]; apical ANC 0.20 ×10^−3 mg/mL, in presence of 0.05 × 10^−3 mg/mL FA-g-CS, 3 h",0.0032 ± 0.0001 e ×10^−3 mg/mL
same,Concentrations of ANC at the Basolateral Side,"[1]; apical ANC 0.20 ×10^−3 mg/mL, in presence of 0.05 × 10^−3 mg/mL FA-g-CS, 4 h",0.0033 ± 0.0001 e ×10^−3 mg/mL
same,Concentrations of ANC at the Basolateral Side,"[1]; apical ANC 0.20 ×10^−3 mg/mL, without FA-g-CS co-treatment, 1 h",0.0007 ± 0.00001 a ×10^−3 mg/mL
same,Concentrations of ANC at the Basolateral Side,"[1]; apical ANC 0.20 ×10^−3 mg/mL, without FA-g-CS co-treatment, 2 h",0.001 ± 0.0002 b ×10^−3 mg/mL
same,Concentrations of ANC at the Basolateral Side,"[1]; apical ANC 0.20 ×10^−3 mg/mL, without FA-g-CS co-treatment, 3 h",0.0012 ± 0.0001 b ×10^−3 mg/mL
same,Concentrations of ANC at the Basolateral Side,"[1]; apical ANC 0.20 ×10^−3 mg/mL, without FA-g-CS co-treatment, 4 h",0.0019 ± 0.0001 c ×10^−3 mg/mL
same,"influence on Caco-2 cells (Figure 1A–C, MTT)",[2]; 2.3 × 10^−4 or 6.9 × 10^−4 mg/mL ANC,insignificant influence
same,effect on cell viability (MTT),"[2]; ANC concentration lower than 6.17 × 10^−3 mg/mL, 48 h",no significant effect
